From EPA's ToxValDB 9.5 (doi:10.2903/j.efsa.2010.1692) come the findings set out here.

In general, NOAEL refers to the highest dose or exposure tested at which no adverse effect was seen.

One series concerns Anas platyrhynchos. The conditions noted are these: short-term; oral; feed; mortality.
Another series deals with Aphidius rhopalosiphi. The conditions noted are these: not reported; reproduction.
The next series relates to Apis mellifera. The conditions noted are these: acute; duration: 48 hours; oral; unspecified; mortality.
The test system of the next series is Chrysoperla externa. The following applies: not reported; mortality.
The next series concerns Lepomis macrochirus. The conditions noted are these: acute; duration: 96 hours; mortality.
A further series deals with Lymnaea stagnalis. The following applies: chronic/long-term; duration: 41 days.
The subject of another series is Oncorhynchus mykiss. The following applies: acute; duration: 96 hours; mortality.
The test system of a further series is Pimephales promelas. The conditions noted are these: chronic/long-term; duration: 32 days.
The subject of a further series is Tagia sp. The conditions noted are these: acute; mortality.

A value given as a limit tells only on which side of the number the result lay.

In the case of `COc1cc(OC)nc(Oc2cccc(Oc3nc(OC)cc(OC)n3)c2C(=O)[O-])n1.[Na+]` [Bispyribac-sodium], the LC50 with Anas platyrhynchos was over 2060 mg/kg; with Coturnix coturnix (acute, oral, diet, mortality), over 2080 mg/kg; in the series on Lepomis macrochirus it was over 95 µg/mL; with Oncorhynchus mykiss it was over 95 µg/mL; in the series with Tagia sp., over 957 mg/kg. For the same molecule, the LEL amounted to 3 g/ha in the series with Aphidius rhopalosiphi and 30 g/ha in the series on Chrysoperla externa. For the same molecule, the LD50 in the series on Apis mellifera was over 141 µg/piece; in the series with Coturnix coturnix (acute, oral, mortality) it was over 2250 mg/kg; with Rattus norvegicus (acute, oral, mortality), 2640 mg/kg. For the same molecule, the NOEC is 116 mg/kg-day in the series on Coturnix coturnix (reproduction developmental, reproduction); at least 10 mg/L with Lymnaea stagnalis; at least 10 mg/L in the series with Pimephales promelas. Also, the NOAEL in the series on Rattus norvegicus (chronic, duration: 2 years, hematological) was 1.1 mg/kg-day; in the series on Rattus norvegicus (reproduction developmental, histopathology: nonneoplastic) it was 1 mg/kg-day; in the series on Rattus norvegicus (subchronic, duration: 90 days, oral, clinical chemistry), 7.2 mg/kg-day. For the same molecule, the NOAEC in the series with Rattus norvegicus (reproduction developmental, body weight) was 50 mg/kg-day.
